From the supplement of paper PMC6965134
± gives the standard deviation of the averaged measurements. Each block holds one molecule with its values, some of them ahead of it.

Test: TIMS collisional cross section (CCS, N2) of the lipid ion; higher = larger ion cross section
Settings: ionization mode: negative, one isomer drawn
Experimental: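 Lipid extracts of human plasma (NIST SRM 1950), mouse liver or HeLa cells were separated by nanoflow C18 LC (30 min gradient) and analysed by TIMS-PASEF on a timsTOF Pro. Ion mobility was calibrated with the Agilent tuning mix (negative mode ions) and converted to collisional cross sections (Mason–Schamp, N2).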

[1] = sample type: Human plasma, ion (formula + adduct): [C40H78NO7P-CH3] 1-
[2] = sample type: Human plasma, ion (formula + adduct): [C44H80NO7P+AcO] 1-
[3] = sample type: Human plasma, ion (formula + adduct): [C46H84NO7P-CH3] 1-
[4] = sample type: Mouse Liver, ion (formula + adduct): [C46H84NO7P-CH3] 1-
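Note: lipids from MTBE extraction, five replicate injections per sample, 100 ms TIMS ramp spanning 0.6–1.95 Vs/cm², lipid identity assigned from PASEF MS/MS spectra.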

SMILES: CC/C=C\C/C=C\C/C=C\C/C=C\C/C=C\C/C=C\CCC(=O)O[C@H](COC(=O)CCCCCCCCC/C=C\CCCCCCCC)COP(=O)([O-])OCC[N+](C)(C)C [PC 20:1_22:6@]
TIMS collisional cross section (sample type: Mouse Liver, ion (formula + adduct): [C50H86NO8P+HCOO] 1-): 306.7 Å²

SMILES: CC/C=C\C/C=C\C/C=C\C/C=C\C/C=C\C/C=C\CCC(=O)O[C@H](COC(=O)CCCCCCCCC/C=C\C/C=C\CCCCC)COP(=O)([O-])OCC[N+](C)(C)C [PC 20:2@_22:6]
TIMS collisional cross section (sample type: Mouse Liver, ion (formula + adduct): [C50H84NO8P+HCOO] 1-): 303.9 Å²

SMILES: CC/C=C\C/C=C\C/C=C\C/C=C\C/C=C\C/C=C\CCC(=O)O[C@H](COC(=O)CCC/C=C\C/C=C\C/C=C\C/C=C\C/C=C\CC)COP(=O)([O-])OCC[N+](C)(C)C [PC 20:5_22:6]
TIMS collisional cross section (sample type: Mouse Liver, ion (formula + adduct): [C50H78NO8P+HCOO] 1-): 300.4 Å²

SMILES: CC/C=C\C/C=C\C/C=C\C/C=C\C/C=C\C/C=C\CCC(=O)OC[C@H](COP(=O)([O-])OCC[N+](C)(C)C)OC(=O)CC/C=C\C/C=C\C/C=C\C/C=C\C/C=C\C/C=C\CC [PC 22:6_22:6]
TIMS collisional cross section (sample type: Mouse Liver, ion (formula + adduct): [C52H80NO8P+HCOO] 1-): 304.9 Å²

SMILES: CCCCCCCCCCCCCCCCCC(=O)O[C@H](COCCCCCCCCCCCCCC)COP(=O)([O-])OCC[N+](C)(C)C [PC O- 14:0@_18:0]
TIMS collisional cross section (sample type: Mouse Liver, ion (formula + adduct): [C40H82NO7P+HCOO] 1-): 287.2 Å²

SMILES: CCCCCCCC/C=C\CCCCCCCC(=O)O[C@H](COCCCCCCCCCCCCCC)COP(=O)([O-])OCC[N+](C)(C)C [PC O- 14:0@_18:1]
TIMS collisional cross section (sample type: Human plasma, ion (formula + adduct): [C40H80NO7P+HCOO] 1-): 286.1 Å²

SMILES: CCCCC/C=C\C/C=C\CCCCCCCC(=O)O[C@H](COCCCCCCCCCCCCCC)COP(=O)([O-])OCC[N+](C)(C)C [PC O- 14:0@_18:2]
TIMS collisional cross section [1]: 265.6 Å²

SMILES: CCCCCCCCCCCCCCCCOC[C@H](COP(=O)([O-])OCC[N+](C)(C)C)OC(=O)CCCCCCCCCCCCC [PC O- 16:0@_14:0]
TIMS collisional cross section (sample type: Human plasma, ion (formula + adduct): [C38H78NO7P+HCOO] 1-): 282.2 Å²

SMILES: CCCCC/C=C\C/C=C\CCCCCCCC(=O)O[C@H](COCCCCCCCCCCCCCCCC)COP(=O)([O-])OCC[N+](C)(C)C [PC O- 16:0@_18:2]
TIMS collisional cross section (sample type: Human plasma, ion (formula + adduct): [C42H82NO7P+HCOO] 1-): 288.8 Å²
TIMS collisional cross section (sample type: Human plasma, ion (formula + adduct): [C42H82NO7P-CH3] 1-): 271.8 Å²
TIMS collisional cross section (sample type: Mouse Liver, ion (formula + adduct): [C42H82NO7P+HCOO] 1-): 290 Å²

SMILES: CCCCCCCCCC/C=C\CCCCCCCC(=O)O[C@H](COCCCCCCCCCCCCCCCC)COP(=O)([O-])OCC[N+](C)(C)C [PC O- 16:0@_20:1]
TIMS collisional cross section (sample type: Mouse Liver, ion (formula + adduct): [C44H88NO7P-CH3] 1-): 279.7 Å²

SMILES: CC/C=C\C/C=C\C/C=C\C/C=C\C/C=C\CCCC(=O)O[C@H](COCCCCCCCCCCCCCCCC)COP(=O)([O-])OCC[N+](C)(C)C [PC O- 16:0@_20:5]
TIMS collisional cross section [2]: 298.5 Å²

SMILES: CC/C=C\C/C=C\C/C=C\C/C=C\C/C=C\CCCCCC(=O)OC(COCCCCCCCCCCCCCCCC)COP(=O)([O-])OCC[N+](C)(C)C (stereo not given) [PC O- 16:0@_22:5]
TIMS collisional cross section [3]: 281.3 Å²
TIMS collisional cross section [4]: 280.2 Å²

SMILES: CC/C=C\C/C=C\C/C=C\C/C=C\C/C=C\C/C=C\CCC(=O)O[C@H](COCCCCCCCCCCCCCCCC)COP(=O)([O-])OCC[N+](C)(C)C [PC O- 16:0@_22:6]
TIMS collisional cross section (sample type: Human plasma, ion (formula + adduct): [C46H82NO7P+HCOO] 1-): 298.4 Å²
TIMS collisional cross section (sample type: Mouse Liver, ion (formula + adduct): [C46H82NO7P+HCOO] 1-): 296.7 Å²

SMILES: CCCCCCCCCCCCCCCCOC[C@H](COP(=O)([O-])OCC[N+](C)(C)C)OC(=O)CCCCCCCCCCCCCCC [PC O- 16:0_16:0]
TIMS collisional cross section (sample type: Human plasma, ion (formula + adduct): [C40H82NO7P+HCOO] 1-): 287.8 Å²

SMILES: CCCCCCCCCCCCCCCCCCOC[C@H](COP(=O)([O-])OCC[N+](C)(C)C)OC(=O)CCCCCCCCCCCCCCC [PC O- 18:0@_16:0]
TIMS collisional cross section (sample type: Human plasma, ion (formula + adduct): [C42H86NO7P+HCOO] 1-): 293.5 Å²

SMILES: CCCCC/C=C\C/C=C\CCCCCCCC(=O)O[C@H](COCCCCCCCCCCCCCCCCCC)COP(=O)([O-])OCC[N+](C)(C)C [PC O- 18:0@_18:2]
TIMS collisional cross section (sample type: Mouse Liver, ion (formula + adduct): [C44H86NO7P-CH3] 1-): 276.8 Å²

SMILES: CCCCC/C=C\C/C=C\C/C=C\C/C=C\CCCC(=O)O[C@H](COCCCCCCCCCCCCCCCCCC)COP(=O)([O-])OCC[N+](C)(C)C [PC O- 18:0@_20:4]
TIMS collisional cross section (sample type: Human plasma, ion (formula + adduct): [C46H86NO7P+HCOO] 1-): 299 Å²

SMILES: CC/C=C\C/C=C\C/C=C\C/C=C\C/C=C\C/C=C\CCC(=O)O[C@H](COCCCCCCCCCCCCCCCCCC)COP(=O)([O-])OCC[N+](C)(C)C [PC O- 18:0@_22:6]
TIMS collisional cross section (sample type: Human plasma, ion (formula + adduct): [C48H86NO7P+HCOO] 1-): 303.2 Å²

SMILES: CCCCCCCC/C=C\CCCCCCCCOC[C@H](COP(=O)([O-])OCC[N+](C)(C)C)OC(=O)CCCCCCCCCCCCCCC [PC O- 18:1@_16:0]
TIMS collisional cross section (sample type: Human plasma, ion (formula + adduct): [C42H84NO7P+HCOO] 1-): 291.1 Å²

SMILES: CCCCCCCC/C=C\CCCCCCCC(=O)O[C@H](CO/C=C\CCCCCCCCCCCC)COP(=O)([O-])OCC[N+](C)(C)C [PC P- 14:0@_18:1]
TIMS collisional cross section [1]: 267.3 Å²

SMILES: CCCCCC/C=C\CCCCCCCC(=O)O[C@H](CO/C=C\CCCCCCCCCCCCCC)COP(=O)([O-])OCC[N+](C)(C)C [PC P- 16:0@_16:1]
TIMS collisional cross section (sample type: Mouse Liver, ion (formula + adduct): [C40H78NO7P+OAcO] 1-): 283.6 Å²

SMILES: CC/C=C\C/C=C\C/C=C\C/C=C\C/C=C\CCCC(=O)O[C@H](CO/C=C\CCCCCCCCCCCCCC)COP(=O)([O-])OCC[N+](C)(C)C [PC P- 16:0@_20:5]
TIMS collisional cross section (sample type: Human plasma, ion (formula + adduct): [C44H78NO7P+HCOO] 1-): 292.2 Å²
TIMS collisional cross section (sample type: Human plasma, ion (formula + adduct): [C44H78NO7P-CH3] 1-): 275.1 Å²

Continued, values first:

TIMS collisional cross section (sample type: Human plasma, ion (formula + adduct): [C42H78NO7P-CH3] 1-): 270.6 Å²
SMILES: CCCCC/C=C\C/C=C\C/C=C\C/C=C\CCCC(=O)O[C@H](COCCCCCCCCCCCCCC)COP(=O)([O-])OCC[N+](C)(C)C [PC O- 14:0@_20:4]

TIMS collisional cross section (sample type: Human plasma, ion (formula + adduct): [C43H80NO7P-H] 1-): 276.3 Å²
SMILES: CCCCC/C=C\C/C=C\C/C=C\C/C=C\CCCC(=O)O[C@H](COCCCCCCCCCCCCCCC)COP(=O)([O-])OCC[N+](C)(C)C [PC O- 15:0@_20:4]

TIMS collisional cross section (sample type: Human plasma, ion (formula + adduct): [C44H82NO7P+AcO] 1-): 299.9 Å²
TIMS collisional cross section (sample type: Human plasma, ion (formula + adduct): [C44H82NO7P+HCOO] 1-): 293.3 Å²
TIMS collisional cross section (sample type: Mouse Liver, ion (formula + adduct): [C44H82NO7P+HCOO] 1-): 292.7 Å²
SMILES: CCCCC/C=C\C/C=C\C/C=C\C/C=C\CCCC(=O)O[C@H](COCCCCCCCCCCCCCCCC)COP(=O)([O-])OCC[N+](C)(C)C [PC O- 16:0@_20:4]

TIMS collisional cross section (sample type: Human plasma, ion (formula + adduct): [C42H80NO7P-CH3] 1-): 272.4 Å²
TIMS collisional cross section (sample type: Mouse Liver, ion (formula + adduct): [C42H80NO7P-CH3] 1-): 272.4 Å²
SMILES: CCCCC/C=C\C/C=C\CCCCCCCC(=O)O[C@H](COCCCCCCCC/C=C\CCCCCC)COP(=O)([O-])OCC[N+](C)(C)C [PC O- 16:1@_18:2]

TIMS collisional cross section [2]: 296.2 Å²
TIMS collisional cross section (sample type: Human plasma, ion (formula + adduct): [C44H80NO7P-H] 1-): 278.5 Å²
TIMS collisional cross section (sample type: Mouse Liver, ion (formula + adduct): [C44H80NO7P+HCOO] 1-): 292.2 Å²
TIMS collisional cross section (sample type: Mouse Liver, ion (formula + adduct): [C44H80NO7P-CH3] 1-): 275.7 Å²
SMILES: CC/C=C\C/C=C\C/C=C\C/C=C\CCCCCCC(=O)O[C@H](COCCCCCCCC/C=C\CCCCCC)COP(=O)([O-])OCC[N+](C)(C)C [PC O- 16:1@_20:4]

TIMS collisional cross section (sample type: Human plasma, ion (formula + adduct): [C44H80NO7P+HCOO] 1-): 292.2 Å²
SMILES: CC/C=C\C/C=C\C/C=C\C/C=C\CCCCCCC(=O)O[C@H](COCCCCCCCC/C=C\CCCCCC)COP(=O)([O-])OCC[N+](C)(C)C [PC O- 16:1_20:4]

TIMS collisional cross section (sample type: Human plasma, ion (formula + adduct): [C46H84NO7P+HCOO] 1-): 297.5 ± 0.42 Å²
TIMS collisional cross section [3]: 282.5 Å²
TIMS collisional cross section (sample type: Mouse Liver, ion (formula + adduct): [C46H84NO7P+HCOO] 1-): 296.1 Å²
TIMS collisional cross section [4]: 282.5 Å²
SMILES: CCCCC/C=C\C/C=C\C/C=C\C/C=C\CCCC(=O)O[C@H](COCCCCCCCC/C=C\CCCCCCCC)COP(=O)([O-])OCC[N+](C)(C)C [PC O- 18:1@_20:4]

TIMS collisional cross section (sample type: Human plasma, ion (formula + adduct): [C48H88NO7P+HCOO] 1-): 302.3 Å²
SMILES: CC/C=C\C/C=C\C/C=C\C/C=C\CCCCCCC(=O)O[C@H](COCCCCCCCCCC/C=C\CCCCCCCC)COP(=O)([O-])OCC[N+](C)(C)C [PC O- 20:1@_20:4]

TIMS collisional cross section [3]: 282.5 Å²
SMILES: CCCCC/C=C\C/C=C\C/C=C\C/C=C\CCCCCC(=O)O[C@H](CO/C=C\CCCCCCCCCCCCCC)COP(=O)([O-])OCC[N+](C)(C)C [PC P- 16:0@_22:4]
